Key:
Assay in all cases: relative viability (nuclei count vs DMSO), 5 days (fraction); higher = more cells survive
Tosedostat + Trametinib = compound: CC(C)C[C@@H](C(=O)N[C@H](C(=O)OC1CCCC1)c1ccccc1)[C@H](O)C(=O)NO [Tosedostat] + CC(=O)Nc1cccc(-n2c(=O)n(C3CC3)c(=O)c3c(Nc4ccc(I)cc4F)n(C)c(=O)c(C)c32)c1 [Trametinib] (partner 0.02 µM)
Summary of the method: (§1)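 Five library-drug doses in √10 steps were combined with a fixed anchor-drug dose, or a single drug was given alone, by pin tool to lung cancer cell lines in 1536-well plates the day after seeding. Nuclei were stained and counted after 5 days. Relative viability is the nuclei count in treated wells over that in vehicle wells, taken as the median of duplicate plates.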

Tosedostat + Luminespib = compound: CC(C)C[C@@H](C(=O)N[C@H](C(=O)OC1CCCC1)c1ccccc1)[C@H](O)C(=O)NO [Tosedostat] + CCNC(=O)c1noc(-c2cc(C(C)C)c(O)cc2O)c1-c1ccc(CN2CCOCC2)cc1 [Luminespib] (partner 0.01 µM)
Summary of the method: as §1

[1] = compound: CC1=NN=C(O1)C2=NN=C(C=C2)N3CCC(CC3)OC4=C(C=CC(=C4)F)Cl + CS(=O)(=O)N1CCN(Cc2cc3nc(-c4cccc5[nH]ncc45)nc(N4CCOCC4)c3s2)CC1 [Pictilisib] (partner 1 µM)
Summary of the method: as §1

[2] = compound: CC1=NN=C(O1)C2=NN=C(C=C2)N3CCC(CC3)OC4=C(C=CC(=C4)F)Cl + O=C(c1cc(Cc2n[nH]c(=O)c3ccccc23)ccc1F)N1CCN(C(=O)C2CC2)CC1 [Olaparib] (partner 8 µM)
Summary of the method: as §1

Cell Line	relative viability (Tosedostat + Trametinib; first compound 0.02 µM)	relative viability (Tosedostat + Trametinib; first compound 0.06325 µM)	relative viability (Tosedostat + Trametinib; first compound 0.2 µM)	relative viability (Tosedostat + Trametinib; first compound 0.6325 µM)	relative viability (Tosedostat + Trametinib; first compound 2 µM)	relative viability (Tosedostat + Luminespib; first compound 0.02 µM)	relative viability (Tosedostat + Luminespib; first compound 0.06325 µM)	relative viability (Tosedostat + Luminespib; first compound 0.2 µM)	relative viability (Tosedostat + Luminespib; first compound 0.6325 µM)	relative viability (Tosedostat + Luminespib; first compound 2 µM)	relative viability ([1]; first compound 0.253 µM)	relative viability ([1]; first compound 0.8 µM)	relative viability ([1]; first compound 2.53 µM)	relative viability ([1]; first compound 8 µM)	relative viability ([2]; first compound 0.253 µM)	relative viability ([2]; first compound 0.8 µM)	relative viability ([2]; first compound 2.53 µM)	relative viability ([2]; first compound 8 µM)
SK-LU-1	0.648	0.529	0.597	0.447	0.511	0.213	0.211	0.217	0.2	0.188	0.518	0.508	0.529	0.42	0.356	0.341	0.348	0.41
SK-MES-1	0.556	0.536	0.625	0.776	0.782	0.813	0.813	0.898	0.789	0.74	0.263	0.377	0.341	0.384	0.497	0.507	0.538	0.507
SW 1573	0.59	0.537	0.553	0.472	0.505	0.219	0.215	0.456	0.411	0.277	0.527	0.415	0.473	0.383	0.524	0.519	0.426	0.412

Reference: the supplement of paper PMC10307832
